Laboratory results taken from BigSolDB 2.1.

Details: in water

CC(C)(C)[C@H](O)[C@H](Cc1ccc(Cl)cc1)n1cncn1 (racemic)
Details | solubility (mole fraction)
278.15 K | 3.96e-05
280.65 K | 5.22e-05
283.15 K | 6.56e-05
285.65 K | 7.76e-05
288.15 K | 8.75e-05
290.65 K | 0.000111
293.15 K | 0.000146
295.65 K | 0.000181
298.15 K | 0.000231
300.65 K | 0.000295
303.15 K | 0.000346
305.65 K | 0.000408
308.15 K | 0.000458
310.65 K | 0.00054
313.15 K | 0.000626
